Assay results reported in ChEMBL document CHEMBL1201862, “PubChem BioAssay data set” (2004).
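Grown in 96-well plates, cells were treated for 48 hours with each compound at five concentrations. Insufficient inhibition: endpoint recorded as highest concentration tested. Abbreviation: GI50, concentration required for 50% inhibition of growth.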 Calls of active or inactive are those of the source. Rule as the data show it: active = GI50 up to about 1.1 µM and inactive = higher.

Legend:
Experiment in all cases: growth of human tumour cells (NCI), 48 h
BT-549 = test system: BT-549
SNB-75 = test system: SNB-75
NCI-H460 = test system: NCI-H460
HCT-116 = test system: HCT-116
OVCAR-5 = test system: OVCAR-5
UO-31 = test system: UO-31
DU-145 = test system: DU-145
KM12 = test system: KM12
NCI-H23 = test system: NCI-H23
786-0 = test system: 786-0
HOP-62 = test system: HOP-62
HT-29 = test system: HT-29
MDA-MB-231 = test system: MDA-MB-231
MDA-MB-435 = test system: MDA-MB-435
SR = test system: SR
CCRF-CEM = test system: CCRF-CEM
SK-OV-3 = test system: SK-OV-3
SK-MEL-28 = test system: SK-MEL-28
K562 = test system: K562
PC-3 = test system: PC-3
HCC 2998 = test system: HCC 2998
SN12C = test system: SN12C
M14 = test system: M14
Hs-578T = test system: Hs-578T
NCI-H226 = test system: NCI-H226
OVCAR-4 = test system: OVCAR-4
U-251 = test system: U-251
Malme-3M = test system: Malme-3M
HOP-92 = test system: HOP-92
SF-268 = test system: SF-268
A498 = test system: A498
EKVX = test system: EKVX
COLO 205 = test system: COLO 205
OVCAR-8 = test system: OVCAR-8
SNB-19 = test system: SNB-19
CAKI-1 = test system: CAKI-1
SF-295 = test system: SF-295
SW-620 = test system: SW-620
RXF 393 = test system: RXF 393
UACC-62 = test system: UACC-62
A549 = test system: A549
SK-MEL-5 = test system: SK-MEL-5
UACC-257 = test system: UACC-257
OVCAR-3 = test system: OVCAR-3
IGROV-1 = test system: IGROV-1
RPMI-8226 = test system: RPMI-8226
NCI-H522 = test system: NCI-H522
HCT-15 = test system: HCT-15
HL-60 = test system: HL-60
SF-539 = test system: SF-539
TK-10 = test system: TK-10
T47D = test system: T47D
MOLT-4 = test system: MOLT-4
ACHN = test system: ACHN
NCI/ADR-RES = test system: NCI/ADR-RES
LOX IMVI = test system: LOX IMVI
MCF7 = test system: MCF7
MDA-N = test system: MDA-N
SK-MEL-2 = test system: SK-MEL-2

For `COc1cc(/C=N/n2c(-c3ccccc3)nn(C(C)=O)c2=O)cc(OC)c1OC`, which GI50 (BT-549) is on record?
The GI50 was 8.55 µM (inactive).

What about the GI50 (SNB-75) of the same compound?
The GI50 was 3.01 µM (inactive).

What about the GI50 (NCI-H460) of the same compound?
Its GI50 is 0.619 µM (active).

And the GI50 (HCT-116)?
Its GI50 is 0.927 µM (active).

And the GI50 (OVCAR-5)?
The GI50 was 20 µM (inactive).

And the GI50 (UO-31)?
The GI50 was 1.57 µM (inactive).

What about the GI50 (DU-145) of the same compound?
Its GI50 is 4.46 µM (inactive).

What about the GI50 (KM12) of the same compound?
Its GI50 is 0.521 µM (active).

And the GI50 (NCI-H23)?
The GI50 was 4.07 µM (inactive).

And the GI50 (786-0)?
The GI50 was 4.36 µM (inactive).

What about the GI50 (HOP-62) of the same compound?
The GI50 was 12 µM (inactive).

And the GI50 (HT-29)?
The GI50 was 0.405 µM (active).

What about the GI50 (MDA-MB-231) of the same compound?
The GI50 was 4.61 µM (inactive).

What about the GI50 (MDA-MB-435) of the same compound?
The GI50 was 0.19 µM (active).

What about the GI50 (SR) of the same compound?
The GI50 was 0.0875 µM (active).

What about the GI50 (CCRF-CEM) of the same compound?
Its GI50 is 2.23 µM (inactive).

And the GI50 (SK-OV-3)?
Its GI50 is 4.2 µM (inactive).

And the GI50 (SK-MEL-28)?
Its GI50 is 7.13 µM (inactive).

What about the GI50 (K562) of the same compound?
The GI50 was 0.557 µM (active).

And the GI50 (PC-3)?
The GI50 was 2.07 µM (inactive).

What about the GI50 (HCC 2998) of the same compound?
Its GI50 is 0.748 µM (active).

What about the GI50 (SN12C) of the same compound?
The GI50 was 5.33 µM (inactive).

And the GI50 (M14)?
Its GI50 is 2.14 µM (inactive).

What about the GI50 (Hs-578T) of the same compound?
Its GI50 is 3.13 µM (inactive).

And the GI50 (NCI-H226)?
The GI50 was 18.5 µM (inactive).

And the GI50 (OVCAR-4)?
The GI50 was 9.91 µM (inactive).

What about the GI50 (U-251) of the same compound?
The GI50 was 3 µM (inactive).

What about the GI50 (Malme-3M) of the same compound?
The GI50 was 5.36 µM (inactive).

What about the GI50 (HOP-92) of the same compound?
Its GI50 is > 33.9 µM (inactive).

And the GI50 (SF-268)?
The GI50 was 6.27 µM (inactive).

What about the GI50 (A498) of the same compound?
The GI50 was 1.59 µM (inactive).

And the GI50 (EKVX)?
The GI50 was 8.81 µM (inactive).

What about the GI50 (COLO 205) of the same compound?
Its GI50 is 1.58 µM (inactive).

And the GI50 (OVCAR-8)?
The GI50 was 3.78 µM (inactive).

And the GI50 (SNB-19)?
Its GI50 is 2.56 µM (inactive).

And the GI50 (CAKI-1)?
Its GI50 is 1.77 µM (inactive).

And the GI50 (SF-295)?
The GI50 was 1.02 µM (active).

What about the GI50 (SW-620) of the same compound?
The GI50 was 0.836 µM (active).

And the GI50 (RXF 393)?
Its GI50 is 5.26 µM (inactive).

What about the GI50 (UACC-62) of the same compound?
The GI50 was 1.92 µM (inactive).

What about the GI50 (A549) of the same compound?
The GI50 was 3.2 µM (inactive).

What about the GI50 (SK-MEL-5) of the same compound?
Its GI50 is 0.675 µM (active).

And the GI50 (UACC-257)?
The GI50 was 3.24 µM (inactive).

And the GI50 (OVCAR-3)?
Its GI50 is 0.69 µM (active).

And the GI50 (IGROV-1)?
The GI50 was 2.11 µM (inactive).

And the GI50 (RPMI-8226)?
The GI50 was 1.49 µM (inactive).

And the GI50 (NCI-H522)?
Its GI50 is 0.818 µM (active).

And the GI50 (HCT-15)?
Its GI50 is 0.635 µM.

And the GI50 (HL-60)?
Its GI50 is 0.745 µM (active).

And the GI50 (SF-539)?
Its GI50 is 1.66 µM (inactive).

What about the GI50 (TK-10) of the same compound?
The GI50 was 3.85 µM (inactive).

And the GI50 (T47D)?
The GI50 was 8.02 µM (inactive).

What about the GI50 (MOLT-4) of the same compound?
Its GI50 is 0.714 µM (active).

What about the GI50 (ACHN) of the same compound?
Its GI50 is 6 µM (inactive).

What about the GI50 (NCI/ADR-RES) of the same compound?
Its GI50 is 1.25 µM (inactive).

What about the GI50 (LOX IMVI) of the same compound?
The GI50 was 2.72 µM (inactive).

What about the GI50 (MCF7) of the same compound?
Its GI50 is 0.684 µM (active).

And the GI50 (MDA-N)?
Its GI50 is 0.228 µM (active).

And the GI50 (SK-MEL-2)?
The GI50 was 1.72 µM (inactive).
